Data on five compounds can be found in patent US20040266774A1, “Amide compounds” (FUJISAWA PHARMACEUTICAL CO., LTD., priority 1999, published 2004).

For one series, the target named is T1, 5-HT2c binding site (Rattus norvegicus, UniProt P08909).
T1 construct: ability to displace [^3H]-mesulergine in the rat prefrontal cortex; from tissue; host or cells: rat prefrontal cortex membrane suspension
T1 sequence (P08909 33-460): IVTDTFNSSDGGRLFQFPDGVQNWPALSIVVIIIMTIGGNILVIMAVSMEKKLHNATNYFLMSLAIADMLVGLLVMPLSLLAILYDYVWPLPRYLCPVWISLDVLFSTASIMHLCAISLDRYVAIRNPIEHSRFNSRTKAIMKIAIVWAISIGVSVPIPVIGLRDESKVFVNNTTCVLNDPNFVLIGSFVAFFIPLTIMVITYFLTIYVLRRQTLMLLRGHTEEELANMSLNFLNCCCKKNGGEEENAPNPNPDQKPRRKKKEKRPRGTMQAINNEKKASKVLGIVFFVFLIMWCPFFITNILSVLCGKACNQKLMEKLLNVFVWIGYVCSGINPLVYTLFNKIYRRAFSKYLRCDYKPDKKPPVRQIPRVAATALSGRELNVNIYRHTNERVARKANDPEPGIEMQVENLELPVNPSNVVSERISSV
Briefly: [3H]-mesulergine binding. Particulars: displacement of [3H]-mesulergine (1 nM) in rat prefrontal cortex membranes; test drugs 10^-6 M; 30 nM spiperone present; 37° C., 30 minutes. As to the method:
[^3H]-mesulergine Binding
The affinity of the test drugs for the 5-HT2c binding site can be determined by assessing their ability to displace [^3H]-mesulergine in the rat prefrontal cortex. The method employed was similar to that of Pazos et al, 1984.
The membrane suspension ([…]) was incubated with [^3H]-mesulergine (1 nM) in Tris HCl buffer containing CaCl2 4 mM and ascorbic acid 0.1% (pH 7.4) at 37° C. for 30 minutes. Non-specific binding was measured in the presence of mianserin (1 μM). 30 nM spiperone was used to prevent binding to 5-HT2A sites. Test drugs (10^−6 M) were added in a volume of 100 μl. The total assay volume was 1000 μl. Incubation was stopped by rapid filtration using a Brandel cell harvester and radioactivity measured by scintillation counting.
The IC50 values were determined using a four parameter logistic program (DeLean 1978) and the pKi (the negative logarithm of the inhibition constant) calculated from the Cheng Prusoff equation where: [formula]
C=concentration of [^3H]-mesulergine
Kd=affinity of mesulergine for 5-HT2c binding site.

For the compound `Cn1ccc2cc(NC(=O)Nc3cccnc3)ccc21` [(1), N-(1-Methyl-1H-indol-5-yl)-N′-(3-pyridyl)urea, reference compound], at 5-HT2c binding site, the “Inhibition (%)” value amounted to 21%.

With `O=C(Nc1cccc(-n2ccnc2)c1)c1csc(-c2ccccc2)n1` [Example 25, N-(3-(imidazol-1-yl)phenyl)-2-phenylthiazole-4-carboxamide], the melting point lay within 131 to 134 °C. Consider `O=C(Nc1cccc(-c2ccnnc2)c1)c1cccc2c1Cc1ccccc1-2` [(4), N-(3-(pyridazin-4-yl)phenyl)-9H-fluorene-1-carboxamide], for which, at 5-HT2c binding site, the “Inhibition (%)” value worked out at 64%.

Take `O=C(Nc1cccc(-c2cncnc2)c1)c1cccc2c1Cc1ccccc1-2` [(3), N-(3-(pyrimidin-5-yl)phenyl)-9H-fluorene-1-carboxamide]: the “Inhibition (%)” value on 5-HT2c binding site stood at 92%. Still for that read-out and setting: in the case of `O=C(Nc1cccc(-c2cccnc2)c1)c1cccc2c1Cc1ccccc1-2` [(2), N-(3-(pyridin-3-yl)phenyl)-9H-fluorene-1-carboxamide] it was 74%.

As usually defined, the melting point is the temperature, or range, at which the solid turns liquid.
